Molecules are shown by their SMILES. In brackets after ≈: the same amount, converted by molar mass. Several values for one entry are separate records, joined by “and”; a condition that tells them apart may be missing. Identical values can stand only once. Counter-ions that a name gives are not always drawn.

The subject of one series is Str. pneumoniae A9585. In words: Antibiotic activity in nutrient broth (MIC), Str. pneumoniae. It is filed as cell-based. The conditions noted are these: Streptococcus pneumoniae, 45% AAB + 5% serum + 50% broth, 10^-3 dilution of overnight culture, Ex. 1/Ex. 2 figures recalculated on penicillin content. From the text:
(§1) ANTIBIOTIC ACTIVITY IN NUTRIENT BROTH
(§2) *45% AAB + 5% serum + 50% broth
(§3) **Dilution of overnight broth culture
(§4) +These figures were […] on the basis that there was only 60.61%
(§5) amoxicillin in the sample; in other words, the numerical values were
(§6) lowered, i.e. improved.
(§7) ----//These figures were recalculated on the basis that there was only

Another series has as its system Str. pyogenes A9604. In words: Antibiotic activity in nutrient broth (MIC), Str. pyogenes. It is filed as cell-based. The following applies: Streptococcus pyogenes, 45% AAB + 5% serum + 50% broth, 10^-3 dilution of overnight culture, Ex. 1/Ex. 2 figures recalculated on penicillin content.
From the text: as §1, §2, §3, §4, §5, §6, §7

In the next series the test system is S. aureus Smith A9537. In words: Antibiotic activity in nutrient broth (MIC), S. aureus Smith. Format: cell-based. The conditions noted are these: Staphylococcus aureus, 10^-4 dilution, Ex. 1/Ex. 2 figures recalculated on penicillin content.
From the text: as §1, §3, §4, §5, §6, §7

For another series, the system named is Sal. enteritidis A9531. In words: Antibiotic activity in nutrient broth (MIC), Sal. enteritidis. Format: cell-based. The conditions noted are these: Salmonella enterica, 10^-4 dilution, Ex. 1/Ex. 2 figures recalculated on penicillin content.
From the text: as §1, §3, §4, §5, §6, §7

Another series deals with E. coli Juhl A15119. In words: Antibiotic activity in nutrient broth (MIC), E. coli Juhl. The conditions noted are these: Escherichia coli, JUHLA15119, 10^-4 dilution, Ex. 1/Ex. 2 figures recalculated on penicillin content. It is filed as cell-based.
From the text: as §1, §3, §4, §5, §6, §7

Another series deals with E. coli A9675. In words: Antibiotic activity in nutrient broth (MIC), E. coli A9675. It is filed as cell-based. The following applies: Escherichia coli, 10^-4 dilution, Ex. 1/Ex. 2 figures recalculated on penicillin content.
From the text: as §1, §3, §4, §5, §6, §7

In the next series the test system is Pr. mirabilis A9900. In words: Antibiotic activity in nutrient broth (MIC), Pr. mirabilis. The following applies: Proteus mirabilis, 10^-4 dilution, Ex. 1/Ex. 2 figures recalculated on penicillin content. It is filed as cell-based.
From the text: as §1, §3, §4, §5, §6, §7

Another series concerns Ser. marcescens A20019. In words: Antibiotic activity in nutrient broth (MIC), Ser. marcescens. Format: cell-based. The following applies: Serratia marcescens, 10^-4 dilution, Ex. 1/Ex. 2 figures recalculated on penicillin content.
From the text: as §1, §3, §4, §5, §6, §7

The next series has as its system Ent. cloacae A9657. In words: Antibiotic activity in nutrient broth (MIC), Ent. cloacae A9657. The conditions noted are these: Enterobacter cloacae, 10^-4 dilution, Ex. 1/Ex. 2 figures recalculated on penicillin content. It is filed as cell-based.
Series [1] can be described thus: Mouse blood levels after oral administration. The conditions noted are these: 100 mg./kg., tested twice, average of 6 mice each, in µg/mL (unit assumed).
Series [2] in a line: Mouse blood levels after intramuscular administration. The conditions noted are these: 10 mg./kg., average of six animals, unit assumed.
The next series relates to K. pneumoniae A9977. In words: Antibiotic activity in nutrient broth (MIC), K. pneumoniae A9977. It is filed as cell-based. The following applies: Klebsiella pneumoniae, 10^-4 dilution, Ex. 1/Ex. 2 figures recalculated on penicillin content.
From the text: as §1, §3, §4, §5, §6, §7

The test system of a further series is Ent. cloacae A9659. In words: Antibiotic activity in nutrient broth (MIC), Ent. cloacae A9659. It is filed as cell-based. The conditions noted are these: Enterobacter cloacae, 10^-4 dilution, Ex. 1/Ex. 2 figures recalculated on penicillin content.
For series [3] the following is noted: cited from earlier work.
[4] abbreviates: SMITHA9537, nutrient broth, no serum.

For the compound `CC1(C)S[C@@H]2[C@H](NC(=O)[C@H](N)c3ccc(O)cc3)C(=O)N2[C@H]1C(=O)O` [Amoxicillin, D(-)-α-amino-p-hydroxybenzylpenicillin, reference compound], the MIC was not above 0.002 µg/mL with Str. pneumoniae A9585; not above 0.002 µg/mL in the series with Str. pyogenes A9604; 0.008 µg/mL (≈ 0.0219 µM) with S. aureus Smith A9537 (SMITHA9537, +50% serum); 0.008 µg/mL (≈ 0.0219 µM) in the series on S. aureus Smith A9537 (setting [4]); 0.008 µg/mL (≈ 0.0219 µM) in the series with Sal. enteritidis A9531; 0.5 µg/mL (≈ 1.37 µM) in the series on E. coli Juhl A15119. Moreover, the MIC with E. coli A9675 is 8 µg/mL (≈ 21.9 µM); in the series on Pr. mirabilis A9900, not above 0.016 µg/mL; in the series on Ser. marcescens A20019, 16 µg/mL (≈ 43.8 µM); in the series on Ent. cloacae A9657, 63 µg/mL (≈ 172 µM). For the same compound, the Blood level in series [1] (0.5 hours) was 7.9 and 13.9; in series [1] (1 hour) it was 7.4 and 12.4; in [1] (2 hours) it was 4.6 and 5.8; in [1] (3.5 hours), 1.5 and 0.8. Besides, the Mouse blood level came out at 7.7 µg/mL in [2] (0.25 hours), 4.3 µg/mL in series [2] (0.5 hours), 1.9 µg/mL in series [2] (1 hour) and 0.6 µg/mL in series [2] (1.5 hours).
For the compound `CC1(C)S[C@@H]2[C@H](NC(=O)[C@H](N)c3ccccc3)C(=O)N2[C@H]1C(=O)O` [Ampicillin, D(-)-α-aminobenzyl-penicillin, reference compound], the MIC was 0.008 µg/mL in the series on Str. pneumoniae A9585; 0.008 µg/mL in the series with Str. pyogenes A9604; 0.13 µg/mL (≈ 0.372 µM) in the series on S. aureus Smith A9537 (SMITHA9537, +50% serum); 0.13 µg/mL (≈ 0.372 µM) with S. aureus Smith A9537 (setting [4]); 0.013 µg/mL (≈ 0.0372 µM) in the series on Sal. enteritidis A9531; 2 µg/mL (≈ 5.72 µM) with E. coli Juhl A15119. The MIC with E. coli A9675 was 16 µg/mL (≈ 45.8 µM); in the series with K. pneumoniae A9977, 0.25 µg/mL (≈ 0.715 µM); with Pr. mirabilis A9900, 0.25 µg/mL (≈ 0.715 µM); in the series on Ser. marcescens A20019, 32 µg/mL (≈ 91.6 µM); in the series on Ent. cloacae A9657, 32 µg/mL (≈ 91.6 µM); with Ent. cloacae A9659 it was 63 µg/mL (≈ 180 µM).
Regarding `CC1(C)S[C@@H]2[C@H](N3C(=O)[C@@H](c4ccccc4)NC3(C)C)C(=O)N2[C@H]1C(=O)O` [hetacillin], the “stability in aqueous solution compared with parent penicillins” value in [3] (as sodium salts) is given as “somewhat more stable”.
Regarding `CC1(C)S[C@@H]2[C@H](NC(=O)[C@H](N)c3ccc(O)cc3)C(=O)N2[C@H]1C(=O)O` [potassium salt], the “stable (reconstituted with water)” value in series [3] (250 mg./ml., room temperature) is 15 min. Also, the “precipitation from solution on standing” value in series [3] (reconstituted with water, 250 mg./ml.) was “precipitates out of solution on standing”.
